What was measured:
[1] = Pilot enzyme kinetic study in liver microsomes; assay type: in vitro ADME
From the text: Since identification of F a, F g and F h is of importance to mechanistic understanding the systemic exposure, the related efficacy, and the potent drug-drug interactions, a number of in vivo and in vitro models have been developed to elucidate F a, F g and F h. As for in vitro methods, liver microsomes, S9 or hepatocytes are all well accepted for the generation of hepatic clearance and F h via in vitro-in vivo extrapolation (IVIVE) ([Houston and Carlile, 1998]). Furthermore, functionally mature enterocytes mainly express CYPs and UGTs. Among UGT isoforms, UGT1A8 and UGT1A10 show gut-specific expression patterns ([Kaminsky and Zhang, 2003]; [Court et al., 2012]). However, the achievement of intestinal clearance and (F g) from intestinal microsomes is limited by a lack of consensus on the appropriate scaling factors and a low availability of high-quality tissue. In the present study, in vitro metabolic stability of YL-IPA08 was performed in liver microsomes and intestinal microsomes of rat and human in the presence of NADPH and UDPGA to identify the metabolizing enzyme, organ, and species difference. […] UGT is not involved in the depletion of YL-IPA08. Although the CYP-mediated elimination in HIM and RIM were also observed, with great difference of enzyme expression level between liver and gut, the contribution of intestinal metabolism to the oral bioavailability is hard to define. […]

in vitro [2] = conditions: human, microsomes, pH 7.4
in vitro [3] = conditions: rat, microsomes, pH 7.4
[4] = Blood/plasma partitional ratio, rat blood; assay type: in vitro ADME; conditions: fresh pooled whole blood with heparin, rat whole blood, 37°C, read-out: blood/plasma partitioning (R b/P)
Procedure: The blood/plasma partitional ratio (R b/p) in rat and human blood was measured in vitro using fresh pooled blood including heparin. Whole blood was preincubated at 37°C in a water bath, and spiked with YL-IPA08 at 1 µM. The blood samples were incubated at 37°C for 1 h. After incubation, aliquots of 25 µl spiked whole blood were removed, and the remaining blood was centrifuged at 2,000 × g for 10 min, after which 25 µl aliquots of plasma were removed. Obtained blood and plasma samples were spiked with same volume of blank plasma or blood, respectively, and then immediately precipitated by adding 4× volumes of acetonitrile containing IS to get the same matrix. The concentrations of YL-IPA08 in blood and plasma were determined by LC-MS/MS.

forced swim rats = system: forced swim rats; design: method as in Zhang et al., 2017; conditions: ref Zhang et al., 2017, cited from earlier work
[5] = Pharmacokinetics in portal and jugular vein double cannulated rats; conditions: double cannulation rat model, if F a is 100%
Procedure: The surgical procedure for portal vein catheter insertion was performed according to reference ([Matsuda et al., 2012]). Male SD rats (250–280 g) were purchased from Beijing Vital River Laboratory Animal Technology Co., Ltd. (Beijing, China). Rats were anesthetized with 2% pentobarbital sodium (0.2–0.3 mg/100 g) intraperitoneally dosed. Cannulation into the jugular vein was performed by the method of Murakami reported ([Murakami et al., 2003]) with minor modification. Briefly, an incision of ∼0.5 cm near right clavicle was made and the jugular vein was exposed. Next, this vein was cannulated with ∼12.5 cm of silicone gel tubing (0.6 mm I.D. × 0.9 mm O.D., Skillsmodel Inc., Beijing, China). The other side of the tubing was passed through the back skin. 2.5 cm midline incision was made in the abdominal cavity close to ensiform process and the portal vein was detached. To prevent bleeding, the portal vein was ligated temporarily as the catheter was inserted. The silicone tubing (22 cm, 0.6 mm I.D. × 0.9 mm O.D., Skillsmodel Inc., Beijing, China) was inserted immediately and fixed by a purse-string suture on the portal vein. The time to reperfusion was about 1 min after intercepted blood flow. In addition, a catheter with trumpet-shaped opening was used to prevent the catheter from slipping out of the vessel and minimize the effect on blood flow. Another end of the catheter was passed subcutaneously to the skin close to the scapula.
Blood samples were collected at 0, 0.083, 0.25, 0.5, 1, 2, 4, 6, 8 and 12 h. Blood (approximately 100 µl) was collected from the jugular and portal veins into tubes containing heparin on ice and centrifuged within 1 h of collection. Plasma was harvested and stored at −20°C for bioanalysis.
FaFg was calculated using mass balance method and rat portal blood flow (Qpv) of 32 ml/min/kg, where Rb/p is used to convert plasma concentrations to blood concentrations.

in vitro [6] = conditions: rat; for fraction unbound at 4 h, 1 µM: plasma
Procedure: The fraction of unbound YL-IPA08 in plasma and liver microsomes of rat and human, and brain homogenates of rat were determined utilizing Rapid Equilibrium Dialysis method ([Waters et al., 2008]). Rat brain homogenate was harvested in 4-fold volume (w/v) of PBS (pH 7.4). YL-IPA08 were spiked into fresh plasma, rat brain homogenate, liver microsomes (0.2 mg/ml protein) at concentration of 1 µM, and then dialyzed against […] on a shaker at 37°C for 4 h. To avoid the high non-specific binding of YL-IPA08, 0.01% Tween 80 was added in the incubation mixture. At the end of the incubation, protein was precipitated with acetonitrile (containing IS) and analyzed by LC-MS/MS. Phenacetin, quinidine, and warfarin were selected as positive control for the protein binding test.
The unbound fraction of YL-IPA08 in plasma or liver microsomes (ƒu,x) was calculated as shown in Eq. 2, and unbound fraction in the tissue homogenate (ƒu,b) was calculated according to Eq. 3. fu,x = Concbuffer chamber/Concplasma/liver microsomes chamber (2) fu,b = Concbuffer chamber/Concbrain homogenate chamber (3) The measured unbound fractions would be higher when a tissue is homogenized and diluted in buffer, the unbound fractions in an undiluted tissues (ƒu,brain) were calculated using Eq. 4 ([Kalvass and Maurer, 2002]). Undiluted fu,brain=1/D/((1/fu,brain homogenate)−1)+1/D (4) Where D represents the fold of dilution factor in brain homogenates. The free fraction of plasma and undiluted tissue is used in tissue-to-plasma exposure ratio calculation.

Structure (SMILES): CCN(Cc1ccccn1)C(=O)Cc1c(-c2ccc(Cl)c(Cl)c2)nc2cc(C)ccn12 [YL-IPA08]
- K m [1]: 1 to 3 µM
- microsomal CLint at 1 μM (in vitro [2]): 200 ± 30 µL/min/mg
- microsomal CLint at 1 μM (in vitro [3]): 53 ± 20 µL/min/mg
- blood plasma ratio at 1 h, 1 µM [4]: 1.12 ± 0.08
- antidepressant-like effect (forced swim rats; forced swim rats, 1, 3, and 10 mg/kg): marked acute antidepressant-like effects
- antidepressant-like and anxiolytic-like effects (forced swim rats; series of rat behavior models, 1–10 mg/kg oral dosing): significant antidepressant-like and anxiolytic-like effects
- extraction of gut metabolism [5]: 78%
- Concentration, Cbuffer chamber (in vitro [6]; 4 h, 1 µM): 5.44 ± 0.33 nM
- Concentration, Cplasma/microsome chamber (in vitro [6]; 4 h, 1 µM): 872.67 ± 32.52 nM
- Protein biding (%) (in vitro [6]; 4 h, 1 µM): 99.40 ± 0.01%
- fraction unbound at 4 h, 1 µM (in vitro [6]): ~0.01
- fraction unbound at 4 h, 1 µM (in vitro [6]; Unbound fraction): 0.006
